Among the data in patent publication US10336717B2, “Inhibitors of beta-secretase” (Vitae Pharmaceuticals, Inc., priority 2009, dated 2019) are IC50 values, retold here.

Test [1] addresses truncated human beta-secretase (residues 1-458, His6-tagged) (Homo sapiens (Human), UniProt P56817). Briefly: BACE enzyme assay (fluorescence quench, Example 434A). It is filed as biochemical.
A further test concerns the target BACE (Homo sapiens (Human), UniProt P56817). Briefly: BACE cell assay: secreted Aβ 1-40 in H4-APPsw cells (AlphaLISA/ELISA, Example 434B). It is filed as cell-based. To be noted: in vitro cell activity, Aβ 1-40 in culture media after overnight treatment. A general note: In Alpha technology, singlet oxygen from a donor bead excites a nearby acceptor bead.

The structures appear in SMILES notation.

Sequence of BACE (P56817 46-501 limits assumed): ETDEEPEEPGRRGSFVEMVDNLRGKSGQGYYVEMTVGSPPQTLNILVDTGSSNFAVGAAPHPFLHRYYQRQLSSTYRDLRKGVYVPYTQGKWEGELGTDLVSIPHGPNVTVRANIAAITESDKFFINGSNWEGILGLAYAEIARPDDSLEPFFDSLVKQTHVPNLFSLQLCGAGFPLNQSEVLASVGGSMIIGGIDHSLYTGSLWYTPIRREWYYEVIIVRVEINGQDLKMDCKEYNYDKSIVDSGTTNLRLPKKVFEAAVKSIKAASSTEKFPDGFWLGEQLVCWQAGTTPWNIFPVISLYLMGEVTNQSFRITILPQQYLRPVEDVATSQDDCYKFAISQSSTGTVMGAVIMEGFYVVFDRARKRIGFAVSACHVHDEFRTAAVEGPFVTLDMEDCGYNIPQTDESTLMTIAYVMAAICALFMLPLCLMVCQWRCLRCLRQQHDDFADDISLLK
Sequence of truncated human beta-secretase (residues 1-458, His6-tagged) (P56817 22-458): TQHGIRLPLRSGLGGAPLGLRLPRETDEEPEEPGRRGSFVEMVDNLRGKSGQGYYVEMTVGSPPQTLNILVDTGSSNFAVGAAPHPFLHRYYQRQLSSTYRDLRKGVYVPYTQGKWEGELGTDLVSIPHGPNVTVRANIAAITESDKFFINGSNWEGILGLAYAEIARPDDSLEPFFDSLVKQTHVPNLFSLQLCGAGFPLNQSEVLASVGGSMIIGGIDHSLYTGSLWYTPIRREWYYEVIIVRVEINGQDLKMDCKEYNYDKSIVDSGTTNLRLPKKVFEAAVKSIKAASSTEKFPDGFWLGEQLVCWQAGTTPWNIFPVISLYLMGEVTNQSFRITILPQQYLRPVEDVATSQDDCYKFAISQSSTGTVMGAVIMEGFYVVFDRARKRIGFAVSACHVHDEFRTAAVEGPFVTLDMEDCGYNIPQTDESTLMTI

A word on the IC50: it is the concentration at which inhibition is half-maximal. Low readings indicate greater potency, high ones weaker potency. As for `CN1OC2(N=C1N)c1ccccc1CC21CCc2ccccc2CC1` (centres unmarked) [Compound 35], half-maximal inhibition in test [1] (IC50) required 105 nM.

In the case of `CCOC1CCC2(CC1)Cc1ccc(-c3cccc(C#N)c3)cc1C21N=C(N)N(C)O1` (centres unmarked) [Compound 49], the IC50 against BACE is less than 1000 nM.
